Experimental data from ChEMBL document CHEMBL1135719, “Structural basis of RasGRP binding to high-affinity PKC ligands” (J Med Chem, 2002).

Assays:
[1] = molecular target: T1, RAS guanyl-releasing protein 1 (Rattus norvegicus, UniProt Q9R1K8); test: Binding affinity against RAS guanyl releasing protein using [3H]- PDBu as the labeled ligand
T1 sequence (Q9R1K8 whole entry): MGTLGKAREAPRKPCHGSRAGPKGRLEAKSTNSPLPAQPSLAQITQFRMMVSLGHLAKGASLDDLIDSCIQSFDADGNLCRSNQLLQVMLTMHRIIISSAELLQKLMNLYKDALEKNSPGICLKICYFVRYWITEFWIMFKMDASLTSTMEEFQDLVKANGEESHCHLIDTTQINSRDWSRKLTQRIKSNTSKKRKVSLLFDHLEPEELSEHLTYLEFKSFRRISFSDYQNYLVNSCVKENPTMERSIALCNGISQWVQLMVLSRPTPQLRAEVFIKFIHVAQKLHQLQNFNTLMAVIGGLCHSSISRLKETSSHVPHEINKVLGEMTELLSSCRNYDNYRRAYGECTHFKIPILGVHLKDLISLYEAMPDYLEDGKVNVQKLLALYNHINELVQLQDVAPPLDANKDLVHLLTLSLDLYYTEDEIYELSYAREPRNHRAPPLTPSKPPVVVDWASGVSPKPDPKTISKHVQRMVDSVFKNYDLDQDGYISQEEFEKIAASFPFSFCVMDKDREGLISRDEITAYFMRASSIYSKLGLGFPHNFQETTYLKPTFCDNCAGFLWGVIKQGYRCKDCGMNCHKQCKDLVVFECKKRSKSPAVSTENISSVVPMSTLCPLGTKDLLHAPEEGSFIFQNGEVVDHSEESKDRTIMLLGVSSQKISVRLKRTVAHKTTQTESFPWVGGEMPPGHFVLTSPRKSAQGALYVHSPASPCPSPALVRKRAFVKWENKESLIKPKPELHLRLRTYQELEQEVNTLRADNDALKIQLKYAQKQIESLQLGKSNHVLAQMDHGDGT

[2] = molecular target: Protein kinase C delta type (Mus musculus, UniProt P28867); test: Displacement of [3H]- PDBu from Protein kinase C delta C1b domain
Sequence of Protein kinase C delta type (P28867 whole entry, the tested form may be a part): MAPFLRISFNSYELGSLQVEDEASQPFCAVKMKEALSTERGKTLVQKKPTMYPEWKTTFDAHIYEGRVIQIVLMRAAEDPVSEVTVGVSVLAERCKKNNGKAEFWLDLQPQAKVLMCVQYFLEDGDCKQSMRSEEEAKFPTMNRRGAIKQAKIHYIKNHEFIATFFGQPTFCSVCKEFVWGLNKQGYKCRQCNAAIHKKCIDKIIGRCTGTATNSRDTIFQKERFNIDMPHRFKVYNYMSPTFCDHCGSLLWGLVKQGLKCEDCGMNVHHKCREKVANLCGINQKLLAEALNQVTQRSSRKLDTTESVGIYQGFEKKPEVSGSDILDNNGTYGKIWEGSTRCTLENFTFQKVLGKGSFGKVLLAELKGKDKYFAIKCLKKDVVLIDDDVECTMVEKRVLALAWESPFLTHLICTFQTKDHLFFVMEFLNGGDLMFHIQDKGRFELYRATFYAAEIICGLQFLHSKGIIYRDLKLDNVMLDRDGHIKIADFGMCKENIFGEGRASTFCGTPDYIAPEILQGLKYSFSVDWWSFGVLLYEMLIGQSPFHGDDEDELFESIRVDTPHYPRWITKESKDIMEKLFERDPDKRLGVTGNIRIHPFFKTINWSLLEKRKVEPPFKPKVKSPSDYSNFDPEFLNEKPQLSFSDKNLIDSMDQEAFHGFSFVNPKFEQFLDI

| Structure (SMILES) | Ki [1] [nM] | Ki [2] [nM] |
| --- | --- | --- |
| CCCCCCCCC#Cc1ccc2c(c1)C[C@@H](CO)NC(=O)[C@H](C(C)C)N2C | 6.15 | 10.7 |
| CCCCCCCCc1ccc2c3c(c[nH]c13)C[C@@H](CO)NC(=O)[C@H](C(C)C)N2C | 0.85 | 0.1 |
| CC(C)[C@H]1C(=O)N[C@H](CO)Cc2c[nH]c3cccc(c23)N1C [INDOLACTUM] | 2.54 |  |
| CCCCCCCCC#Cc1ccc2c(c1OC)C[C@@H](CO)NC(=O)[C@H](C(C)C)N2C | 13.9 | 35.1 |
